Patent publication US20250255874A1, “Methods for Treating Immune Thrombocytopenia By Administering (R)-2-[3-[4-Amino-3-(2-Fluoro-4-Phenoxy-Phenyl)Pyrazolo[3,4-D]Pyrimidin-1-YL]Piperidine-1-Carbonyl]-4-Methyl-4-[4-(Oxetan-3-YL)Piperazin-1-YL]Pent-2-Enentrile” (Principia Biopharma Inc., priority 2022, published 2025)

Test system: patients with immune thrombocytopenia who initiated 400 mg BID
Experiment: Clinical predictors of response, exploratory analysis of Phase 1/2 study (univariate logistic regression)
Type: in vivo, human
Source text: Clinical predictors were selected based on clinical considerations anticipated to be associated with platelet response and evaluated by univariate logistic regression models. For continuous variables, the t test was used to test for differences, whereas for categorical variables, the Fisher exact test was used. PK exposure at steady-state was estimated based on post hoc analysis from a previously established population PK model.

**Q.** What does the source list for CC(C)(C=C(C#N)C(=O)N1CCC[C@@H](n2nc(-c3ccc(Oc4ccccc4)cc3F)c3c(N)ncnc32)C1)N1CCN(C2COC2)CC1 [rilzabrutinib, (R)-2-[3-[4-amino-3-(2-fluoro-4-phenoxy-phenyl)pyrazolo[3,4-d]pyrimidin-1-yl]piperidine-1-carbonyl]-4-methyl-4-[4-(oxetan-3-yl)piperazin-1-yl]pent-2-enenitrile]?
**A.** early responders, proportion of patients (patients who received prior rituximab): 14%; early responders, proportion of patients (patients with no prior rituximab): 48%; responders, proportion of patients (patients with prior rituximab): 23%; responders, proportion of patients (patients without prior TPO-RA): 64%; responders, proportion of patients (patients without prior rituximab): 57%
